# Reference: PMC4729491, “The Cellular Thioredoxin-1/Thioredoxin Reductase-1 Driven Oxidoreduction Represents a Chemotherapeutic Target for HIV-1 Entry Inhibition” (PLoS ONE, 2016)
# Where a name gives a salt, the structure may show the parent alone. Read-outs that look alike come from different tables or passages of the source. Square brackets hold non-standard residues; d marks the D form. Peptide text beside a SMILES is read from it. * marks the point of attachment. Sta = CC(C)C[C@H](N)[C@@H](O)CC(=O)O; Isovaleryl = CC(C)CC(=O)*
# Legend:
# HIV-1(IIIB) [1] = test: Antiviral activity in PHA-stimulated PBMCs (p24 ELISA), HIV-1(IIIB); assay type: cell-based; conditions: Human immunodeficiency virus 1, IIIB, PBMC, read-out: EC50 HIV-1 (IIIB)
# Protocol: (§1) To test the antiviral activity in fresh, PHA-stimulated PBMCs, an experiment was performed as previously described. Briefly, the cells were preincubated with HIV-1(IIIB), HIV-1(BaL) or HIV-1(HE) for 1 h at 37°C, using a viral load of 1000 x CCID50 per ml. Then, cell suspensions containing virus and 2 x 10^5 PBMCs were seeded in a 96-well microtiter plate and a serial dilution of compound was added, in a total volume of 200 μl. After 4 days, the cells were passaged and fresh culture medium, containing IL-2 and compound, was added. Three days later, cellular supernatants were harvested and viral replication in the presence of the compounds was quantified using a p24 enzyme-linked immunosorbent assay (ELISA) (Perkin Elmer, Brussels, Belgium). The half maximal effective concentration (EC50) was defined as the compound concentration that is required to block viral replication by 50%.
# HeLa cells = test: Cytostatic activity assay, HeLa cells; assay type: cell-based; conditions: Homo sapiens, 72 h, read-out: IC50 HeLa
# Protocol: (§2) The cytostatic activity assay using transformed cell lines was also performed in 96-well microtiter plates. 5–7.5 x 10^4 human CD4^+ T-lymphocyte CEM or human cervix carcinoma HeLa cells and a given amount of the test compounds were added to each well. The cells were allowed to proliferate for 72 h (96 h for HeLa) at 37°C in a humidified CO2-controlled atmosphere. At the end of the incubation period, the cells were counted in a Coulter counter (type ZM, Coulter Electronics, Analis, Ghent, Belgium).
# [2] = previously known structural properties ref 20-22; cited from earlier work
# HIV-1(BaL) = test: Antiviral activity in PHA-stimulated PBMCs (p24 ELISA), HIV-1(BaL); assay type: cell-based; conditions: Human immunodeficiency virus 1, BAL, PBMC
# Protocol: as §1
# HIV-1 = test: Infectivity (TZM-bl) of virus particles produced by ACH-2 cells in presence of compound; assay type: cell-based; conditions: compound added at 1/100 of concentration in viral growth culture
# Protocol: To measure the infectivity of particles produced in the presence of the compounds, washed persistently HIV-1-infected ACH-2 cells (1 x 10^6 cells/ml) were cultured with 100 nM PMA in the presence of the indicated concentration of compounds. After 3 days, the p24 content of the clarified supernatant (see virus expression) was measured. The cell supernatant was then used for an infectivity test (see infectivity assay) without the further addition of any compound to the cultures. The final dilution of the ACH-2 supernatant in the infectivity test was 1:100. A control experiment was performed, in which virus particles produced without the addition of compound, were used for the infectivity test. Additionally, the same amount of compound that could have been carried over with the virus containing supernatant in the original experiment was added to the infectivity test (final concentration: 1/100 of the indicated amount in the viral growth culture).
# HIV-1(HE) = test: Antiviral activity in PHA-stimulated PBMCs (p24 ELISA), HIV-1(HE); assay type: cell-based; conditions: Human immunodeficiency virus 1, PBMC, read-out: EC50 HIV-1 (HE)
# Protocol: as §1
# HIV-1(IIIB) [3] = test: microbe, parasite or virus in culture; assay type: cell-based
# Protocol: (§3) To study the antiviral activity in transformed cells, CEM cells were suspended in fresh culture medium and infected with HIV-1(IIIB) or HIV-2(ROD) at 100 x CCID50 (cell culture infective dose 50%) per ml of cell suspension. Infected cell suspension (100 μl; 3 x 10^5 cells/ml) was transferred to a 96-well microplate, mixed with 100 μl of the appropriate dilutions of compounds, and further incubated at 37°C. After 4 days, giant cell formation was recorded microscopically and the number of giant cells was estimated microscopically as percentage of the number of giant cells present in the non-treated virus-infected cell cultures.
# CEM cells = test: Cytostatic activity assay, CEM cells; assay type: cell-based; conditions: Homo sapiens, CCRF-CEM, 72 h; inhibition of cell proliferation by 50%, three-day drug-exposed; mean ± SD
# Protocol: as §2
# HIV-2(ROD) = test: Inhibition of HIV-2(ROD)-induced giant cell formation in CEM cell cultures; assay type: cell-based
# Protocol: as §3
# PHA-stimulated PBMCs = test: Toxicity in PHA-stimulated PBMCs (trypan blue cell counting); assay type: cell-based, human; conditions: Homo sapiens, PBMC, 168 h, read-out: IC50 PBMC
# Protocol: A similar experiment was performed to study the toxicity of the compounds in fresh, PHA-stimulated, PBMCs. Mock-infected PBMCs (2 x 10^5 cells) were exposed to a serial dilution of compound, in a total volume of 200 μl. Cells were passaged after 4 days. Cell survival and proliferation was assessed at day 7 using trypan blue-based cell counting with the Countess Automated Cell Counter (Invitrogen, Ghent, Belgium). The IC50 was defined as the concentration of the compound that inhibited cell proliferation by 50%.
# [4] = test system: HuT-78/HIV-1 and Sup-T1 cells; test: cells; assay type: cell-based; conditions: read-out: IC50 inhibition of syncytia formation
# Protocol: Persistently infected HuT-78/HIV-1 cells were thoroughly washed to eliminate free virions. Next, 1 x 10^5 HuT-78/HIV-1 cells were co-cultivated with 1 x 10^5 Sup-T1 cells in 96-well plates (200 μl/well) during 20 h at 37°C, in the presence or absence of a serial dilution of compound. Afterwards, the formation of syncytia was evaluated microscopically. The EC50 was defined as the compound concentration required to suppress syncytia formation by 50%.
# HIV-1 protease [5] = target: T1, HIV-1 protease (Human immunodeficiency virus type 1 group M subtype B, UniProt P04585); test: HIV-1 protease inhibition (SensoLyte 520 kit); assay type: biochemical; conditions: 25 μM
# T1 construct: the virus-encoded protease; endogenous in cells; host or cells: persistently infected HuT-78/HIV-1(IIIB) cells and released virus particles
# Protocol: The ability of the compounds to inhibit the activity of recombinant HIV-1 protease was determined by a SensoLyte 520 HIV-1 protease assay kit (AnaSpec Inc., Fremont, CA) according to the manufacturer’s instructions. Compounds (10 μl of a 250 μM, solution, giving a final concentration of 25 μM in the reaction mixture) and 40 μl HIV-1 protease (100 ng/well; AnaSpec Inc.) were added to a dark-bottom 96-well plate. Pepstatin A was included as an inhibitor control. The plate as well as the HIV-1 protease substrate solution (provided) were incubated for 15 minutes at 37°C and 50 μl protease substrate was added to all wells. The fluorescence was measured at Ex/Em = 490 nm/520 nm with a Varioskan Flash (Thermo Electron Corporation, Schwerte, Germany).
# HIV-1(IIIB) [6] = assay type: cell-based; conditions: MT-4 cells
# Protocol: Two time-of-drug-addition (TOA) experiments were performed and adopted from previously reported methods. Briefly, MT-4 cells were infected with HIV-1(IIIB) at a multiplicity of infection of 0.5. Following a 1 hour adsorption period, cells were washed, distributed in a 96-well tray at 100,000 cells per 200 μl per well and incubated at 37°C.
# For the first experiment, test compounds were added to the infected cell cultures at different time points (i.e. 0, 1, 2, 3, 4, 5, 6, 7, 8, 9, 24, and 25 h) after the start of infection.
# In a second experiment, the resolution of the assay was increased by evaluating early time points in more detail. Therefore, the test compounds were added to the infected cell cultures at the following time points after the start of infection: 0, 15, 30, 45, 100 and 180 min; and 24 as well as 25 h.
# Product added at time points 0, 15, 30 and 45 min was present at the start of the viral infection and washed away after 1 hour. After washing, fresh product was added to maintain viral suppression throughout the remaining of the experiment.
# HIV-1 production was determined at 31 h post infection via a p24 ELISA (Perkin Elmer, Brussels, Belgium).
# HIV-1 protease [7] = target: T1, HIV-1 protease; test: p55 cleavage in virus particles from HuT-78/HIV-1 cells (Western blot); assay type: cell-based; conditions: 43 h, AZT 3.7 μM, ritonavir 2.8 μM, TE-10 1 and 20 μM
# Protocol: In order to confirm the inhibitory effect of TE-10, an additional assay was performed to study the inhibition of the HIV-1 protease by TE-10. Therefore, 2 x 10^5 persistently infected HuT-78/HIV-1 cells were washed thoroughly and seeded in 48-well plates, in the presence or absence of compound. As reference compounds, the RT inhibitor AZT (3.7 μM) and the protease inhibitor ritonavir (2.8 μM) were used, as negative and positive controls, respectively. TE-10 was used at 1 μM and 20 μM. After 43 h of incubation at 37°C, virus-containing cell culture supernatants were harvested and the cells were removed by centrifugation (10 min at ± 900 x g). Then, virus was precipitated from the cell supernatant by centrifugation at ± 3.5 x 10^4 x g for at least 2 h. The viruses were resuspended in PBS and lysed with Triton-X100 (Sigma-Aldrich, Diegem, Belgium). These viral lysates were then subjected to SDS-PAGE and subsequent Western blotting to detect the presence of p24 and its precursor p55, using an anti-p24 antibody (AB9044; final concentration 2.4 μg/ml).
compound,measurement,setting,value
"CCCC[Te]CCCS(=O)(=O)O [TE-20, 3-(butyltelluro)propanesulfonic acid sodium salt]",EC50,HIV-1(IIIB) [1],18 ± 12 µM
same,IC50,HeLa cells,101 ± 3 µM
same,Hydrophobicity,[2],Hydrophilic
same,EC50,HIV-1(BaL); read-out: EC50 HIV-1 (BAL),≥ 25 µM
same,inhibition at 25 µM,HIV-1(BaL); read-out: inhibition at indicated concentration,30 to 50%
same,carry-over control: residual compound as cause of decreased infectivity,HIV-1,could not be explained by the presence of residual compound
same,EC50,HIV-1(HE),11 ± 9 µM
same,Ratio IC50/EC50 HIV-1 (CEM),HIV-1(IIIB) [3]; CEM cells,38
same,EC50,"HIV-1(IIIB) [3]; Human immunodeficiency virus 1, IIIB, CCRF-CEM, read-out: EC50 HIV-1 (IIIB)",2.7 ± 2.6 µM
same,IC50,CEM cells,103 ± 27 µM
same,Ratio IC50/EC50 HIV-2 (CEM),HIV-2(ROD); CEM cells,36
same,EC50,"HIV-2(ROD); Human immunodeficiency virus 2, CCRF-CEM, read-out: EC50 HIV-2 (ROD)",2.9 ± 1.3 µM
same,IC50,PHA-stimulated PBMCs,75 ± 53 µM
same,IC50,"[4]; Human immunodeficiency virus 1, SUP-T1, 24 h",> 250 µM
"CC(C)CC(=O)N[C@H](C(=O)N[C@H](C(=O)N[C@@H](CC(C)C)[C@@H](O)CC(=O)N[C@@H](C)C(=O)N[C@@H](CC(C)C)[C@@H](O)CC(=O)O)C(C)C)C(C)C [pepstatin A, reference compound] (Isovaleryl-VV[Sta]A[Sta]-OH)",inhibition of protease activity,HIV-1 protease [5],pronounced inhibitory activity
CC(C)c1nc(CN(C)C(=O)N[C@H](C(=O)N[C@@H](Cc2ccccc2)C[C@H](O)[C@H](Cc2ccccc2)NC(=O)OCc2cncs2)C(C)C)cs1 [ritonavir],time after virus infection that addition could be delayed without losing inhibitory activity,"HIV-1(IIIB) [6]; p24 ELISA at 31 h, AZT 1.9 μM, ritonavir 277 nM",≥ 8 h
same,p55 cleavage in viral particles (Western blot),HIV-1 protease [7],blocks this cleavage
dextran sulphate [DS-8000],time post-infection at which activity is lost,"HIV-1(IIIB) [6]; second TOA experiment, DS-8000 12.5 μM, AMD3100 625 nM",30 to 45 min
enfuvirtide,IC50,"[4]; cocultures of HuT-78/HIV-1 and Sup-T1 cells, ~24 hours",0.275 ± 0.15 µM
